Key:
mice [1] = experiment: Luc expression (total flux) after intramuscular administration; format: in vivo; conditions: 6 hours after intramuscular administration, Luc mRNA (Table 5B)
mice [2] = experiment: Luc expression in liver, lung, spleen and femur after intravenous administration to mice; format: in vivo; conditions: Luc mRNA, i.v. to mice, 0.5 mpk, 6 hours
Protocol: The efficacy of the nanoparticle compositions presented in Table 1A was further evaluated by measuring the expression of modified luciferase in the liver, lung, spleen, and femur upon administration of a given composition. Formulations were administered intravenously to mice (n=3) at a dosage of 0.5 mpk and bioluminescence measured after 6 hours. The standard MC3 formulation and a PBS control were also tested. […] Flux in the liver was lowest for compositions including Compounds 58, 59, 137, and 141. Flux in the spleen was highest for compositions including Compounds 4, 7, 33, 34, 48, 53, 108, 129, 130, and 148, and lowest for compositions including Compounds 9, 59, 124, and 141.

[3] = Particle size and polydispersity index of nanoparticle compositions (Zetasizer Nano ZS); format: physicochemical
Outline: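 Particle size and PDI by Zetasizer Nano ZS dynamic light scattering in 1×PBS. Lipid nanoparticles carried mRNA (luciferase or hEPO) with ionizable lipid:DSPC:cholesterol:PEG-DMG at 50:10:38.5:1.5 mol %.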

mice [4] = experiment: hEPO expression in mice after intravenous administration; format: in vivo; conditions: for hEPO expression (pg/ml) 3h / hEPO expression (pg/ml) 6 h / hEPO expression (pg/ml) 24 h: 0.5 mpk
Protocol: Sample formulations of nanoparticle compositions including different lipids are generally first evaluated according to Luc expression in vivo. The activity of several such compositions was further evaluated using an mRNA encoding hEPO. Nanoparticle compositions including Compounds 6, 18, 25, 30, 108-112, 60, and 122, or MC3 were prepared according to Example 2.
The expression of hEPO and cytokine induction in mice intravenously administered a nanoparticle composition at a dose of 0.5 mpk were measured at 3, 6, and 24 hours. […] The expression of hEPO in mice intramuscularly administered a nanoparticle composition from Table 1B at a dose of 0.01 mpk were measured at 3, 6, and 24 hours. […] (see also FIG. 9.)
Table 12 compares the nanoparticle compositions including compounds according to Formula (I), (IA), (II), (IIa), (IIb), (IIc), (IId) or (IIe) to the compositions including MC3 on the basis of expression and flux levels. […] Thus, these lipids may be useful in nanoparticle composition therapeutics. […]

non-human primates = experiment: Tolerability in non-human primates (clinical chemistry, hematology, observations); format: in vivo, Cynomolgus monkeys
Protocol: The tolerability and efficacy of nanoparticle compositions to non-human primates was also investigated using a sample formulation including Compound 18. The formulation was prepared according to the standard MC3 formulation described above and included an hEPO mRNA. Primates were administered a single dose of 0.05 (Group 1), 0.3 (Group 2), or 1.0 (Group 3) mpk via intravenous infusion for 60 minutes. Three primates were administered each dose. Expression of hEPO was measured prior to dosing and at 2, 6, 24, 48, and 96 hours post-treatment (Table 26). Table 28 includes levels of indicators of complement activation, while Table 29 includes cytokine induction data.
In general, lower doses were better tolerated. High doses induced body temperature elevation and hunched posture, which is similar to the behavior observed for primates administered higher doses of MC3 formulations.

[5] = hEPO mRNA, lipid:DSPC:Chol:PEG-DMG (50:10:38.5:1.5) (Table 10)
[6] = nanoparticle composition lipid:DSPC:cholesterol:PEG-DMG 50:10:38.5:1.5 mol %, mRNA encoding Luc or hEPO (Table 1A)

CCCCCC=CCC=CCCCCCCCCC(CCCCCCCCC=CCC=CCCCCC)OC(=O)CCCN(C)C (stereo not drawn) [MC3, heptatriaconta-6,9,28,31-tetraen-19-yl 4-(dimethylamino)butanoate, reference compound]
Total flux (p/s) 0.01 mpk Dose (mice [1]): 3.23E+07 p/s | Total Flux Femur (mice [2]): 2.56E+06 | Total Flux Liver (mice [2]): 2.57E+09 | Total Flux Lung (mice [2]): 1.27E+07 | Total Flux Spleen (mice [2]): 2.85E+07 | Size (nm) ([3]; formulated with hEPO mRNA (Table 1B)): 57.7 nm | Size (nm) [3, 5]: 73.7 nm | Size (nm) [3, 6]: 79.7 nm | hEPO expression (pg/ml) 3h (mice [4]): 1.57e+06 pg/mL | hEPO expression (pg/ml) 6 h (mice [4]): 1.83e+06 pg/mL | hEPO expression (pg/ml) 24 h (mice [4]): 810000 pg/mL

CCCCCCCCCOC(=O)CCCCCCCN(CCO)CCCCCCCC(=O)OC(CCCCCCCC)CCCCCCCC [Compound 18, Heptadecan-9-yl 8-((2-hydroxyethyl)(8-(nonyloxy)-8-oxooctyl)amino)octanoate]
Size (nm) [3, 5]: 78.6 nm | Diameter (nm) ([3]; mRNA encoding anti-HA antibody (Table 33)): 76.8 nm | PDI ([3]; nanoparticle composition 50:10:38.5:1.5 mol % (Table 1A)): 0.042 | Size (nm) [3, 6]: 86.2 nm | hEPO concentrations compared with MC3 formulations at each time point (mice [4]; 0.5 mpk, 3, 6 and 24 hours): higher hEPO concentrations than MC3 formulations | hEPO expression (pg/ml) 3h (mice [4]): 3e+06 pg/mL | hEPO expression (pg/ml) 6 h (mice [4]): 3.38e+06 pg/mL | hEPO expression (pg/ml) 24 h (mice [4]): 1.8e+06 pg/mL | White blood cell counts (non-human primates; non-human primates, 0.05, 0.3 or 1.0 mpk): slightly elevated in animals in the high dose group | reticulocyte counts on Day 5 (non-human primates; non-human primates, all groups): marked increase
